Reference: paper PMC12135066, “Design and Preclinical Evaluation of Novel uPAR-Targeting Radiopeptides Modified with an Albumin-Binding Entity” (Molecular Pharmaceutics, 2025)

Legend:
[1] = n-Octanol/PBS distribution coefficients (logD values); conditions: n-octanol/PBS pH 7.4, pH 7.4
Experimental: The radiopeptides diluted in phosphate-buffered saline (PBS) pH 7.4 (25 μL, ∼0.5 MBq, 0.01 nmol) were added to a mixture of PBS pH 7.4 (1475 μL) and n-octanol (1500 μL). The vials were vortexed vigorously for 1 min, followed by centrifugation (560 rcf, 6 min) for phase separation. Aliquots were taken from each phase and measured in a γ-counter (1480 Wizard, PerkinElmer). The distribution coefficients were calculated as the logarithmic value of the ratio of counts per minute (cpm) measured in the n-octanol phase relative to the cpm measured in the PBS phase.
Methods: The logD value of all radiopeptides was determined in a mixture of n-octanol and phosphate
buffered saline (PBS) pH 7.4 using phase separation followed by liquid-liquid extraction.
polystyrene radioimmunoassay (RIA) tubes were prepared for each radiopeptide with 1.5 mL n-octanol
and 1.475 mL PBS pH 7.4. The RIA tubes were rigorously vortexed and subsequently let to stand so
that the phase separation could take place. The radiopeptides (50 MBq/nmol) were diluted with PBS
pH 7.4 to obtain an activity concentration of 10 MBq/0.5 mL. A volume of 25 μL of these solutions
was added to each RIA tube (25 µL, ~0.5 MBq, 0.01 nmol) followed by vortexing for 1 min.
separation was achieved by centrifugation at 560 rcf for 6 min. The activity in the n-octanol and PBS
phase, respectively, was measured in a γ-counter (Wallac Wizard 1480, PerkinElmer).
coefficients were calculated as the logarithm of the ratio of counts per minute (cpm) measured in the n-
octanol phase relative to the cpm measured in the PBS pH 7.4 phase.
as described above three independent times for each radiopeptide.

[2] = test system: human serum albumin (HSA); assay: Albumin-binding properties in human blood plasma (ultrafiltration assay); conditions: ultrafiltration (Amicon, 10 kDa), human blood plasma dilutions in PBS pH 7.4, [HSA]-to-[radiopeptide] 0.01–20000, 0.006 nmol, 37 °C 30 min, γ-counter; inverse ratio of B50, [177Lu]Lu-uPAR-01 set as 1.00; average curve of 3 experiments
Experimental: The relative albumin-binding affinities of the radiopeptides in mouse and human blood plasma were determined using an ultrafiltration assay with Amicon centrifugal filters (cutoff of 10 kDa; Merck Millipore), as previously reported (Supporting Information). A fixed amount of the respective radiopeptide (15 μL, ∼300 kBq, 0.006 nmol) was added to a defined volume (150 μL) of mouse and human blood plasma dilutions to obtain [mouse serum albumin (MSA)]-to-[radiopeptide] and [human serum albumin (HSA)]-to-[radiopeptide] molar concentration ratios of 0.01–12,500 and 0.01–20,000, respectively. The data were analyzed using a semilogarithmic Hill plot with the maximum binding set as 100% (GraphPad Prism software, version 8.3.1).
Determination of the Albumin-Binding Properties
Purpose: The radiopeptides were investigated with regard to their albumin-binding capabilities in vitro
as a measure to predict blood retention in vivo.
Methods: The relative albumin-binding affinity of the radiopeptides in mouse blood plasma (Rockland
Immunochemicals, Inc., U.S.A.) and human blood plasma (Stiftung Blutspende SRK Aargau-
Solothurn, Switzerland) were determined using an ultrafiltration method. The amount of mouse serum
albumin (MSA) and human serum albumin (HSA) in mouse and human blood plasma was defined as
550 μM and 800 μM, respectively, based on measurements using a dry chemistry analyzer (DRI-CHEM
4000i, FUJIFILM, Japan). A fixed amount of radiopeptide (50 MBq/nmol, ~300 kBq, 15 μL, 0.006
nmol) was added to a defined volume (150 μL) of mouse and human blood plasma and various dilutions
thereof in PBS pH 7.4, resulting in defined [MSA]-to-[radiopeptide] or [HSA]-to-[radiopeptide] molar
concentration ratios ranging from 0.01 ‒12500 and 0.01‒20000, respectively, followed by incubation of
the samples at 37 °C for 30 min. Ice-cold PBS (150 µL, pH 7.4) was added before loading the blood
plasma samples on Amicon centrifugal filters (cut -off of 10 kDa; Merck Millipore) followed by
centrifugation (14000 rcf, 30 min, 4 °C) to allow the separation of the plasma protein -bound from the
plasma-unbound (free) fractions of each sample. The inserts of the filter devices were inverted and centrifuged at 200 rcf for 3 min to recover the protein -bound radiopeptide. The activity in the filtrate
and filter unit was measured in a γ-counter (1480 Wizard, PerkinElmer) and the counts were combined
assuming that the fraction retained in the filter membrane was not bound to proteins. The protein -bound
fraction was expressed as percentage of the whole activity (i.e. plasma protein -bound activity, activity
measured in the filtrate and activity measured in the filter (set as 100%) ). The data were analyzed using
a semi-logarithmic plot assuming a maximum binding of 100%. The Hill equation was fitted to the data
points and the half -maximum binding ( B50) based on the average curve obtained from three independent
experiments (GraphPad Prism software, version 8.3 .1). The relative albumin-binding affinit ies of the
reference compound, whose relative binding affinity was set as 1.0. The results were presented as the
B50 value obtained from the average curve from 3 independent experiments.

[3] = Radiolytic stability of the radiopeptides in saline with L-ascorbic acid; conditions: 50 MBq/nmol in saline, 150 MBq/300 µL, L-ascorbic acid (3 mg, 20 µL) and NaOAc (0.5 M, 30 µL), HPLC, product peak relative to t=0 (100%), average ± SD, n=3
Experimental: The radiolytic stability of the radiopeptides (50 MBq/nmol) in saline (150 MBq/300 μL) was assessed in the absence and presence of L-ascorbic acid (3 mg added in a volume of 20 μL). After an incubation period of 1, 4, and 24 h, aliquots of the solutions were analyzed using HPLC. The integrated peak area representing the intact radiopeptide was expressed as the percentage of the sum of all peaks of the chromatogram. The final amount of intact radiopeptide was expressed as the percentage of the product peak obtained at t = 0, which was set as 100% (Supporting Information).
The radiolytic stability of [177Lu]Lu-DOTA-AE105 and the new 177Lu-labeled uPAR-targeting
radiopeptides (50 MBq/nmol) was assessed in vitro in the formulated solution . The radiopeptide s were
diluted in saline to obtain an activity concentration of 150 MBq in 300 µL in the presence of L-ascorbic
acid (3 mg, 20 µL) and NaOAc (0.5 M, 30 µL) to compensate for the acidic pH. Aliquots of the dilutions
were analyzed using HPLC after incubation periods of 1 h, 4 h and 24 h . The integrated peak area
measured for the intact radioligand peak was expressed as the percentage of the sum of the integrated
peak areas of each peak present in the chromatogram. The final amount of intact radiopeptide at t = 1 h,
4 h and 24 h was expressed by correcting the obtained percentage of the product peak to this peak
obtained at t = 0, which was set as 100%.

[4] = Biodistribution studies in HEK-uPAR xenograft-bearing nude mice; conditions: female, CD1/nude, mouse, 5 MBq (0.5 nmol), total radioactivity, 5 MBq, 0.5 nmol, decay-corrected, average ± SD, n=3 animals; for tissue uptake at 4 h: 4 h p.i.; for tissue uptake at 24 h: 24 h p.i.
[5] = Stability of the radiopeptides in mouse blood plasma; conditions: mouse
human uPAR = biological target: T1, human uPAR (Homo sapiens, UniProt Q03405); assay: uPAR-binding affinity (KD values), saturation experiments with HEK-uPAR cells; conditions: saturation binding on HEK-uPAR cells, on ice (4 °C) 1 h, 1–1600 nM radiopeptide, ± AE105 40 µM; γ-counter; nonlinear regression; average ± SD, n=3
T1 construct: host or cells: HEK cells (HEK-uPAR)
Experimental: To determine the uPAR-binding affinity of the radiopeptides, saturation experiments were performed using HEK-uPAR cells in 48-well plates (Supporting Information). The cells were incubated on ice for 1 h in the presence or absence of excess AE105 (final concentration of 40 μM) together with the respective radiopeptide at a concentration range of 1–1600 nM. After rinsing the cells with PBS, they were lysed with an aqueous NaOH solution (1 M, 600 μL), transferred to radioimmunoassay tubes, and measured in a γ-counter (1480 Wizard, PerkinElmer). The K D values were determined by plotting the specific binding (values of samples incubated without AE105 minus the values of samples incubated with AE105) against the molar concentration of the added peptide. A nonlinear regression analysis was performed using GraphPad Prism software (version 8.3.1). The results were expressed as average ± SD of n = 3 independently performed experiments. […]
7. Determination of uPAR-Binding Affinity (KD Values)
Purpose: The uPAR-binding affinity of the radiopeptides were determined to investigate the impact of structural changes on the receptor binding.
Methods: HEK-uPAR cells were seeded in poly-D-lysine-coated 48-well plates (0.25 × 10 6 in 0.5 mL per well) using DMEM cell culture medium with supplements. The cells were incubated at 37 °C and 5% CO2 overnight to allow adhesion and growth. After removing the supernatant, the well plates with HEK-uPAR cells were placed on ice to prevent internalization of the radiopeptides. The cells were rinsed with cold PBS (0.5 mL, pH 7.4) followed by the addition of DMEM cell culture medium without supplements (450 µL/well) in the presence or absence of AE105 ( final concentration 40 µM) as a receptor-blocking agent. The radiopeptides (5 MBq/nmol) were diluted in PBS to obtain peptide concentrations ranging from 10 ‒16000 nM. From each dilution, 50 µL were added to each well to obtain final peptide concentrations of 1 nM to 1600 nM. The cells were incubated at 4 °C for 1 h before rinsing twice with PBS (0.5 mL, pH 7.4). The cells were lysed using an aqueous NaOH solution (1 M, 600 µL) and the lysates were transferred to RIA tubes for counting the activity in a γ-counter (1480 Wizard, PerkinElmer) . The KD values were determined by plotting specific binding (total binding minus unspecific binding) against the molar concentration of the added radiopeptide using GraphPad Prism (version 8.3.1). the results were then expressed as average K D values ± SD of n = 3 independent […]
Results: The results are reported in the main article.

[6] = test system: mouse serum albumin (MSA); assay: Albumin-binding properties in mouse blood plasma (ultrafiltration assay); conditions: ultrafiltration (Amicon, 10 kDa), mouse blood plasma dilutions in PBS pH 7.4, [MSA]-to-[radiopeptide] 0.01–12500, 0.006 nmol, 37 °C 30 min, γ-counter; inverse ratio of B50, [177Lu]Lu-uPAR-01 set as 1.00; average curve of 3 experiments
[7] = Stability of the radiopeptides in human blood plasma; conditions: human
Experimental: The radiopeptides (50 MBq/nmol) stabilized with L-ascorbic acid were diluted in mouse and human blood plasma and incubated at 37 °C. Aliquots were taken after 1, 4, and 24 h and analyzed using reversed-phase thin-layer chromatography (TLC) (Supporting Information).
aProduct peak expressed as percentage of the sum of integrated peak areas of the entire chromatogram relative to
the value obtained immediately after labeling (set as 100%), average ± standard deviation (SD) (n=3).
Stability of the Radiopeptides in Mouse and Human Blood Plasma
Purpose: The stability of the radiopeptides was assessed in mouse and human blood plasma as an
indication for their in vivo stability.
Methods: The radiopeptides (50 MBq/nmol) stabilized with L-ascorbic acid were diluted in mouse
blood plasma (Lot: 32321, Rockland Immunochemicals Inc., U.S.A.) or in human blood plasma
(Stiftung Blutspende SRK Aargau -Solothurn, Switzerland) at a concentration of 10 MBq/200 µL and
incubated at 37 °C over a 24 h time period. Control samples were prepared by diluting the radiopeptides
in saline at the same activity concentration. Aliquots of each dilution were taken after 1 h, 4 h, and 24 h
(2 µL, ~100 kBq) and investigated employing thin layer chromatography (TLC) methods on reversed-
phase TLC plates (MERCK Analytical Chromatography, TLC Silica gel 60 RP -18 F254s) as stationary
phase and a 3/7 (v/v) mixture of acetonitrile /citrate buffer (0.1 M, pH 5.5) as mobile phase. A dilution
of [177Lu]LuCl3/HCl 0.04 M (10 MBq/200 µL) was added on each TLC plate. The developed and dried
TLC plates were exposed to a phosphor screen (Super resolution screen PSR10450013, PerkinElmer)
for 1 min. The screen was read with a Cyclone Plus phosphor imager (PerkinElmer) and the peak
quantification was performed using OptiQuant Software (version 5.0).

[8] = HEK-uPAR xenograft, HEK-uPAR xgft

T1 sequence (Q03405 23-335): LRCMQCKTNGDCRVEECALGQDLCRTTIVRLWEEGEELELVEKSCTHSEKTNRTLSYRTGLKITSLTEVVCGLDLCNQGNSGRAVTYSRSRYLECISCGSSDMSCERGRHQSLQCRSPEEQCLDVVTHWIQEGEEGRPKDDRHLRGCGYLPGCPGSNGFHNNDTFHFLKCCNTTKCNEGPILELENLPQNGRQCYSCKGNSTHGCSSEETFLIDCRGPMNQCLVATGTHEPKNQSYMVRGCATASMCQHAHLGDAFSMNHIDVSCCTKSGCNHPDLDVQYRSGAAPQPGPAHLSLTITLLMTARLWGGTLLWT

Compound: CC(C)C[C@H](NC(=O)[C@H](Cc1ccc(O)cc1)NC(=O)[C@@H](CCCNC(=N)N)NC(=O)[C@@H](CO)NC(=O)[C@H](Cc1ccccc1)NC(=O)[C@H](CC1CCCCC1)NC(=O)[C@H](CC(=O)O)NC(=O)[C@H](CCCCNC(=O)CCCc1ccc(I)cc1)NC(=O)[C@@H](N)CCCCNC(=O)CN1CCN(CC(=O)O)CCN(CC(=O)O)CCN(CC(=O)O)CC1)C(=O)N[C@@H](Cc1c[nH]c2ccccc12)C(=O)N[C@@H](CO)C(N)=O [[^177Lu]Lu-uPAR-04, metal not drawn]
- logD [1]: -0.29
- Relative albumin-binding affinity, human blood plasma [2]: 1.07
- radiolytic stability, % intact radiopeptide ([3]; 1 h): 99 ± 1%
- radiolytic stability, % intact radiopeptide ([3]; 4 h): 97 ± 2%
- radiolytic stability after 24 h, intact radiopeptide [%] ([3]; 24 h): 95 ± 2%
- tissue uptake at 4 h [4, 8]: 3.6 ± 0.2 %ID/g
- tissue uptake at 24 h [4, 8]: 4.3 ± 1.2 %ID/g
- tissue uptake at 4 h ([4]; blood): 13 ± 1 %ID/g
- tissue uptake at 24 h ([4]; blood): 7 ± 0.9 %ID/g
- tissue uptake at 4 h ([4]; bone): 1.2 ± 0.1 %ID/g
- tissue uptake at 24 h ([4]; bone): 0.85 ± 0.04 %ID/g
- tissue uptake at 4 h ([4]; brain): 0.26 ± 0.02 %ID/g
- tissue uptake at 24 h ([4]; brain): 0.14 ± 0.01 %ID/g
- tissue uptake at 4 h ([4]; heart): 4.4 ± 0.6 %ID/g
- tissue uptake at 24 h ([4]; heart): 3 ± 0.3 %ID/g
- tissue uptake at 4 h ([4]; intestines): 1.6 ± 0.1 %ID/g
- tissue uptake at 24 h ([4]; intestines): 0.99 ± 0.21 %ID/g
- tissue uptake at 4 h ([4]; kidneys): 5.9 ± 0.4 %ID/g
- tissue uptake at 24 h ([4]; kidneys): 5.9 ± 1.2 %ID/g
- tissue uptake at 4 h ([4]; liver): 3.9 ± 0.3 %ID/g
- tissue uptake at 24 h ([4]; liver): 3.1 ± 0.4 %ID/g
- tissue uptake at 4 h ([4]; lung): 6.2 ± 0.7 %ID/g
- tissue uptake at 24 h ([4]; lung): 4.3 ± 0.5 %ID/g
- tissue uptake at 4 h ([4]; muscle): 1 ± 0.1 %ID/g
- tissue uptake at 24 h ([4]; muscle): 0.73 ± 0.04 %ID/g
- tissue uptake at 4 h ([4]; pancreas): 1.5 ± 0.1 %ID/g
- tissue uptake at 24 h ([4]; pancreas): 1 ± 0.1 %ID/g
- tissue uptake at 4 h ([4]; salivary glands): 2.8 ± 0.2 %ID/g
- tissue uptake at 24 h ([4]; salivary glands): 2.4 ± 0.4 %ID/g
- tissue uptake at 4 h ([4]; spleen): 1.9 ± 0.1 %ID/g
- tissue uptake at 24 h ([4]; spleen): 2.3 ± 0.3 %ID/g
- tissue uptake at 4 h ([4]; stomach): 1.5 ± 0.1 %ID/g
- tissue uptake at 24 h ([4]; stomach): 1 ± 0.1 %ID/g
- remaining at 1 h, 10 MBq/200 µL ([5]; blood plasma): 101 ± 2%
- remaining at 24 h, 10 MBq/200 µL ([5]; blood plasma): 98%
- remaining at 4 h, 10 MBq/200 µL ([5]; mouse blood plasma): 99 ± 3%
- Kd (human uPAR): 57 ± 21 nM
- Relative albumin-binding affinity, mouse blood plasma [6]: 1.08
- remaining at 1 h, 10 MBq/200 µL ([7]; blood plasma): 101 ± 3%
- remaining at 24 h, 10 MBq/200 µL ([7]; blood plasma): 90 ± 5%
- remaining at 4 h, 10 MBq/200 µL ([7]; human blood plasma): 98 ± 2%
